Where two headings read alike, the source gives them in different places.
Legend:
[1] = test system: HT-29 human colon cancer cell line; assay: MTT cytotoxicity assay, HT-29; format: cell-based; conditions: 48 h, read-out: IC50 (Means ± SD) HT-29
Protocol: (§1) The cytotoxic activity of the compounds on cancer cell lines, including HT-29, MCF-7, A375, K562, andNCM460cell lines, was measured using the MTT assay with a small modification. Briefly, cells were plated in 96-well plates at a density of 1 × 10^4 cells per well and allowed to grow overnight, then the medium was replaced with fresh RPMI1640 medium containing serially diluted compounds, and the cells were further incubated at 37 °C with 5% CO2 for 48 h. In this experiment, 1 and 6 were diluted into six different series concentrations from 10 μg/mL to 0.0097 μg/mL with 4× dilution each, while 2 and 3 were diluted from 500 μg/mL to 2.06 μg/mL, and 4, 5, and 7 from 300 μg/mL to 1.23 μg/mL with 3× dilution each. Paclitaxel, a clinical medication used as a positive control, was diluted from 100 μg/mL to 3.125 μg/mL with […]. HT-29, MCF-7, and A375 were all cultured in serum-free RPMI1640, while the K562 was cultured in DMEM containing FBS throughout this experiment. The culture medium was removed after the incubation, and then 100 μL of the 5 mg/mL MTT solution was added to each well and further incubated at 37 °C for 4 h. Finally, the supernatants were removed, and 150 μL of dimethyl sulfoxide (DMSO) was added to each well. After shaking the plates for 10 min at room temperature, the optical density value was measured spectrophotometrically at 570 nm using the microplate reader. The IC50 value (50% inhibitory concentration) was determined to evaluate the cell viability of these cell lines. In this experiment, Graph Pad Prism 5software (San Diego, CA, USA) was used to calculate the half inhibitory concentration (IC50) values. Each experiment was independently repeated at least three times and represented as the means ± standard deviation (SD).

[2] = test system: MCF-7 human breast cancer cell line; assay: MTT cytotoxicity assay, MCF-7; format: cell-based; conditions: MCF7, 48 h, read-out: IC50 (Means ± SD) MCF-7
Protocol: as §1

[3] = test system: A375 human malignant melanoma cell line; assay: MTT cytotoxicity assay, A375; format: cell-based; conditions: A-375, 48 h, read-out: IC50 (Means ± SD) A375
Protocol: as §1

[4] = test system: K562 human chronic myeloid leukemia cell line; assay: MTT cytotoxicity assay, K562; format: cell-based; conditions: 48 h, read-out: IC50 (Means ± SD) K562
Protocol: as §1

[5] = test system: NCM460 human normal colon epithelial cell line; assay: MTT cytotoxicity assay, NCM460; format: cell-based; conditions: 48 h, read-out: IC50 (Means ± SD) NCM460
Protocol: as §1

[6] = test system: HT-29, MCF-7, A375, K562 and NCM460 cell lines; assay: MTT cytotoxicity assay, whole panel of cell lines; format: cell-based, human; conditions: for cytotoxic activity toward the tested cell lines (in words): all tested cell lines; for IC50: Homo sapiens, range over all tested cell lines, read-out: IC50 values ranging over the tested cell lines
Protocol: as §1

[7] = medium containing FBS, NA = not active

Compound	IC50 ([1]; medium without FBS) [µM]	IC50 ([2]; medium without FBS) [µM]	IC50 ([3]; medium without FBS) [µM]	IC50 [4, 7] [µM]	IC50 ([5]; normal colon epithelial cells) [µM]	cytotoxic activity toward the tested cell lines (in words) [6]	IC50 [6] [µM]	IC50 ([1]; positive control) [µM]	IC50 ([2]; positive control) [µM]	IC50 ([3]; positive control) [µM]	IC50 ([4]; positive control) [µM]	IC50 ([5]; positive control) [µM]
CC[C@H](O)CC(=O)CC[C@H](O)C(C)C(=O)O (some centres unmarked) [Compound 1]	1.98 ± 1.04	5.44 ± 1.33	45 ± 1.21	1.56 ± 0.21	27.9 ± 4.7	less activity	–	–	–	–	–	–
C[C@H](C(=O)O)[C@@H]1CC[C@H](C[C@@H](C)O)O1 [Compound 2, nonactic acid]	44.4 ± 2.77	289 ± 3.54	185.9 ± 1.27	83.6 ± 2.54	1605 ± 14.4	–	–	–	–	–	–	–
CC[C@@H](O)C[C@H]1CC[C@@H]([C@H](C)C(=O)O)O1 [Compound 3, homononactic acid]	39.9 ± 3.22	99.1 ± 2.66	146 ± 2.01	57 ± 1.88	1027 ± 8.01	–	–	–	–	–	–	–
CCOC(=O)[C@@H](C)[C@@H]1CC[C@H](C[C@H](O)CC)O1 [Compound 4, ethyl homononactate]	11.8 ± 1.83	39.6 ± 2.57	65.09 ± 0.62	12.3 ± 0.54	249 ± 4.22	–	–	–	–	–	–	–
CC[C@@H](O)C[C@H]1CC[C@@H]([C@H](C)C(=O)O[C@@H](CC)C[C@@H]2CC[C@H]([C@@H](C)C(=O)O)O2)O1 [Compound 5, homononactylhomononactate]	38.1 ± 2.35	16.7 ± 1.08	30.7 ± 0.93	14.2 ± 0.47	33.3 ± 3.31	–	–	–	–	–	–	–
CC(C)[C@@H]1NC(=O)[C@H](C)OC(=O)[C@@H](C(C)C)NC(=O)[C@@H](C(C)C)OC(=O)[C@H](C(C)C)NC(=O)[C@H](C)OC(=O)[C@@H](C(C)C)NC(=O)[C@@H](C(C)C)OC(=O)[C@H](C(C)C)NC(=O)[C@H](C)OC(=O)[C@@H](C(C)C)NC(=O)[C@@H](C(C)C)OC1=O [Compound 6, valinomycin]	–	–	–	–	–	significant cytotoxic activities	–	–	–	–	–	–
CC(C)CC1NC(=O)C2CCCN2C1=O (centres unmarked) [Compound 7, cyclo-(Pro-Leu)]	102 ± 2.66	78.8 ± 1.95	51.1 ± 4.73	21.7 ± 0.35	776 ± 11.4	–	–	–	–	–	–	–
CCOC(=O)[C@@H](C)C1CCC(C[C@@H](C)O)O1 (some centres unmarked) [Compound 8]	441.3 ± 1.65	847 ± 39.5	445.9 ± 4.1	–	164 ± 3.09	–	–	–	–	–	–	–
CC[C@@H](O)CC1CCC([C@H](C)C(=O)OC(C)C)O1 (some centres unmarked) [Compound 9]	113 ± 3.68	171 ± 5.08	115 ± 3.66	69.4 ± 3.9	29 ± 3.68	broad toxicity	–	–	–	–	–	–
CCCCOC(=O)[C@@H](C)C1CCC(C[C@H](O)CC)O1 (some centres unmarked) [Compound 10]	326.8 ± 1.4	416.5 ± 3.9	314.6 ± 0.57	285.1 ± 2.44	109 ± 3.6	–	–	–	–	–	–	–
CCCCCCCCCCOC(=O)[C@@H](C)C1CCC(C[C@@H](C)O)O1 (some centres unmarked) [Compound 11]	43.2 ± 2.84	34.1 ± 1.87	24.29 ± 0.03	38.2 ± 0.7	44.2 ± 0.64	–	24.3 to 44.2	–	–	–	–	–
CCCCCCCCCCCCCCOC(=O)[C@@H](C)C1CCC(C[C@H](O)CC)O1 (some centres unmarked) [Compound 12]	209 ± 3.25	485.6 ± 3.18	127 ± 6.65	187 ± 4.57	150 ± 4.03	–	–	–	–	–	–	–
CCCCCCCCCCCCCCCCCCOC(=O)[C@@H](C)C1CCC(C[C@H](O)CC)O1 (some centres unmarked) [Compound 13]	322 ± 4.17	362.4 ± 0.96	217.6 ± 0.99	313 ± 3.29	299.3 ± 1.77	–	–	–	–	–	–	–
CC[C@@H](O)CC1CCC([C@H](C)C(=O)OCc2ccccc2)O1 (some centres unmarked) [Compound 14]	73.2 ± 1.05	111 ± 3.89	89.9 ± 1.09	41.4 ± 2.84	21.1 ± 3.66	broad toxicity	21.1 to 89.9	–	–	–	–	–
CC[C@@H](O)CC1CCC([C@H](C)C(=O)Oc2ccc(C=O)cc2OC)O1 (some centres unmarked) [Compound 15]	531 ± 5.46	–	175 ± 6.11	175 ± 3.28	–	–	–	–	–	–	–	–
CC[C@@H](O)CC1CCC([C@H](C)C(=O)Oc2ccc(-c3ccccc3)cc2)O1 (some centres unmarked) [Compound 16]	165.1 ± 1.23	156 ± 3.56	67.32 ± 0.25	105 ± 2.58	110 ± 1.36	–	–	–	–	–	–	–
C[C@H](C(=O)N1CCCCC1)C1CCC(C[C@@H](C)O)O1 (some centres unmarked) [Compound 17]	563 ± 7.35	390 ± 10	199.1 ± 1.9	339 ± 1.23	180 ± 7.88	–	–	–	–	–	–	–
CC[C@@H](O)CC1CCC([C@H](C)C(=O)Nc2ccccc2N)O1 (some centres unmarked) [Compound 18]	235.7 ± 1.31	302.4 ± 1.83	108 ± 5.22	402.9 ± 0.69	55.7 ± 7.65	broad toxicity	–	–	–	–	–	–
CC[C@@H](O)CC1CCC([C@H](C)C(=O)Nc2nc3ccccc3s2)O1 (some centres unmarked) [Compound 19]	169 ± 4.2	270.3 ± 1.09	128.5 ± 0.48	–	80.1 ± 3.82	–	–	–	–	–	–	–
CCC[C@H](CC1CCC([C@H](C)C(=O)O)O1)O[Si](C)(C)C(C)(C)C (some centres unmarked) [Compound 20]	356 ± 7.67	284.3 ± 1.24	215 ± 0.76	323 ± 5.94	37 ± 1.39	broad toxicity	–	–	–	–	–	–
CC(=O)O[C@H]1C(=O)[C@@]2(C)[C@H]([C@H](OC(=O)c3ccccc3)[C@]3(O)C[C@H](OC(=O)[C@H](O)[C@@H](NC(=O)c4ccccc4)c4ccccc4)C(C)=C1C3(C)C)[C@]1(OC(C)=O)CO[C@@H]1C[C@@H]2O [Paclitaxel, reference compound]	–	–	–	–	–	–	–	0.00569 ± 0.00132	0.0138 ± 0.00212	0.0458 ± 0.00179	0.00931 ± 0.00188	0.0182 ± 0.00234

Reference: PMC8704880, “Secondary Metabolites with Cytotoxic Activities from Streptomyces sp. BM-8 Isolated from the Feces of Equus quagga” (Molecules, 2021)
